Patent US20180320217A1, “METHODS FOR SAMPLING AND MEASURING ORAL LAVAGE PROTEINS” (The Procter & Gamble Company, priority 2017, published 2018)
Values joined by “and” are separate entries in the source; they are usually repeats but may differ in a detail not shown here. Equal values may be shown once. “Also recorded” adds a separate entry of the source. Where a name gives a salt, the structure may show the parent alone.

Tests used:
diaphorase [1] = assay: Formation of formazan dyes: NADH and diaphorase, absence of malate (TABLE 7); type: biochemical, Clostridium kluyveri; conditions: NADH and diaphorase, absence of malate
diaphorase [2] = assay: Formation of formazan dyes: NADH, diaphorase and malate (TABLE 8); type: biochemical, Clostridium kluyveri; conditions: NADH, diaphorase and malate
[3] = test system: Malate dehydrogenase and diaphorase; assay: Formation of formazan dyes: Malate dehydrogenase and diaphorase, absence of malate (TABLE 9); type: biochemical, pig heart
[4] = test system: Malate dehydrogenase and diaphorase; assay: Formation of formazan dyes: Malate dehydrogenase, diaphorase and malate (TABLE 10); type: biochemical, pig heart
oral lavage [5] = assay: Formation of formazan dyes: oral lavage and diaphorase, not malate (TABLE 11); type: biochemical, human
oral lavage [6] = assay: Formation of formazan dyes: oral lavage, malate and diaphorase (TABLE 12); type: biochemical, human; conditions: oral lavage, malate and diaphorase
diaphorase [7] = assay: Formation of formazan dyes: only diaphorase, not malate (TABLE 13); type: biochemical, Clostridium kluyveri; conditions: mean of three experiments
diaphorase [8] = assay: Formation of formazan dyes: only diaphorase and malate (TABLE 14); type: biochemical, Clostridium kluyveri; conditions: mean of three experiments
[9] = Formation of formazan dyes: NADH and 1-methoxy PMS, absence of malate (TABLE 15); type: biochemical
[10] = Formation of formazan dyes: NADH, malate and 1-methoxy PMS (TABLE 16); type: biochemical; conditions: monosodium salt
oral lavage [11] = assay: Formation of formazan dyes: oral lavage and 1-Methoxy PMS, absence of malate (TABLE 19); type: biochemical, human; conditions: monosodium salt
[12] = Formation of formazan dyes: control buffer and 1-Methoxy PMS, absence of malate (TABLE 21); type: biochemical; conditions: monosodium salt
[13] = Formation of formazan dyes: control buffer, malate and 1-Methoxy PMS (TABLE 22); type: biochemical
diaphorase [14] = assay: Effect of concentrations of tetrazolium salts on formation of formazan dyes (FIGS. 4A-4G); type: biochemical; conditions: 15 mM NADH+H, 20 μg diaphorase, pH 7.5; FIGS. 4A to 4G
Description: On the idea that higher concentrations of tetrazolium salts in the assay buffer would likely result in more formazan dyes in the reaction, various concentrations of tetrazolium salts were added to a reaction buffer and the formation of formazan dyes were measured at 0, 30 and 60 minutes. […] The reactions were performed at room temperature. Absorbance was taken at 0, 30 and 60 minutes.

Malate dehydrogenase = biological target: T1, Malate dehydrogenase (Sus scrofa, UniProt P00346); assay: Formation of formazan dyes: Malate dehydrogenase and 1-Methoxy PMS, absence of malate (TABLE 17); type: biochemical, pig heart; set-up: L-malate dehydrogenase (pig heart); purchased Sigma-Aldrich 10127248001 / 10127914001
T1 sequence (P00346 25-338): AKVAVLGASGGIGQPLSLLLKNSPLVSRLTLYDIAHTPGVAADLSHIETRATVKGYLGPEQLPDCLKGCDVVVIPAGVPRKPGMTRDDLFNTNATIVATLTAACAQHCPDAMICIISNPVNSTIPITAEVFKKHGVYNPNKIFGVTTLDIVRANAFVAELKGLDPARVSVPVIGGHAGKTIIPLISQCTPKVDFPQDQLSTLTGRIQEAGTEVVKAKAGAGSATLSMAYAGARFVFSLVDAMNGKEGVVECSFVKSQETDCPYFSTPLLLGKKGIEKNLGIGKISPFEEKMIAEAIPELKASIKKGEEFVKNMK

[15] = UV absorbance analysis of formazan products, TABLE 6; conditions: in the presence of 1-methoxy PMS

COc1cc([N+](=O)[O-])ccc1-[n+]1nc(-c2ccc(S(=O)(=O)[O-])cc2S(=O)(=O)[O-])nn1-c1ccc([N+](=O)[O-])cc1.[Na+] [WST-8, 5-(2,4-disulfophenyl)-3-(2-methoxy-4-nitrophenyl)-2-(4-nitrophenyl)-2H-tetrazolium, inner salt, monosodium salt]
Formation of formazan dyes, absorbance, Means 0 h (diaphorase [1]; 0 h): 3.54
Formation of formazan dyes, absorbance, Means 1 h (diaphorase [1]; 1 h): 3.72
Formation of formazan dyes, absorbance, Means 2 h (diaphorase [1]; 2 h): 3.77
Formation of formazan dyes, absorbance, Means 3 h (diaphorase [1]; 3 h): 3.77
Formation of formazan dyes, absorbance, Means 4 h (diaphorase [1]; 4 h): 3.63
Formation of formazan dyes, absorbance, Means 6 h (diaphorase [1]; 6 h): 3.64
Formation of formazan dyes, absorbance, Means 8 h (diaphorase [1]; 8 h): 3.66
Formation of formazan dyes, absorbance, Means 10 h (diaphorase [1]; 10 h): 3.65
Formation of formazan dyes, absorbance, Means 12 h (diaphorase [1]; 12 h): 3.67
Formation of formazan dyes, absorbance, Means 0 h (diaphorase [2]; 0 h): 3.06
Formation of formazan dyes, absorbance, Means 1 h (diaphorase [2]; 1 h): 3.36
Formation of formazan dyes, absorbance, Means 2 h (diaphorase [2]; 2 h): 3.47
Formation of formazan dyes, absorbance, Means 3 h (diaphorase [2]; 3 h): 3.53
Formation of formazan dyes, absorbance, Means 4 h (diaphorase [2]; 4 h): 3.50
Formation of formazan dyes, absorbance, Means 6 h (diaphorase [2]; 6 h): 3.54
Formation of formazan dyes, absorbance, Means 8 h (diaphorase [2]; 8 h): 3.54
Formation of formazan dyes, absorbance, Means 10 h (diaphorase [2]; 10 h): 3.51
Formation of formazan dyes, absorbance, Means 12 h (diaphorase [2]; 12 h): 3.45
Formation of formazan dyes, absorbance, Means 0 h ([3]; Malate dehydrogenase and diaphorase, absence of malate, 0 h): 1.13
Formation of formazan dyes, absorbance, Means 1 h ([3]; Malate dehydrogenase and diaphorase, absence of malate, 1 h): 1.84
Formation of formazan dyes, absorbance, Means 2 h ([3]; Malate dehydrogenase and diaphorase, absence of malate, 2 h): 2.15
Formation of formazan dyes, absorbance, Means 3 h ([3]; Malate dehydrogenase and diaphorase, absence of malate, 3 h): 2.32
Formation of formazan dyes, absorbance, Means 4 h ([3]; Malate dehydrogenase and diaphorase, absence of malate, 4 h): 2.41
Formation of formazan dyes, absorbance, Means 6 h ([3]; Malate dehydrogenase and diaphorase, absence of malate, 6 h): 2.62
Formation of formazan dyes, absorbance, Means 8 h ([3]; Malate dehydrogenase and diaphorase, absence of malate, 8 h): 2.72
Formation of formazan dyes, absorbance, Means 10 h ([3]; Malate dehydrogenase and diaphorase, absence of malate, 10 h): 2.80
Formation of formazan dyes, absorbance, Means 12 h ([3]; Malate dehydrogenase and diaphorase, absence of malate, 12 h): 2.89
reduction of tetrazolium dye in the absence of substrate malate ([3]; malate dehydrogenase and diaphorase (TABLE 9)): partially reduced
Formation of formazan dyes, absorbance, Means 0 h ([4]; Malate dehydrogenase, diaphorase and malate, 0 h): 1.13
Formation of formazan dyes, absorbance, Means 1 h ([4]; Malate dehydrogenase, diaphorase and malate, 1 h): 1.93
Formation of formazan dyes, absorbance, Means 2 h ([4]; Malate dehydrogenase, diaphorase and malate, 2 h): 2.36
Formation of formazan dyes, absorbance, Means 3 h ([4]; Malate dehydrogenase, diaphorase and malate, 3 h): 2.65
Formation of formazan dyes, absorbance, Means 4 h ([4]; Malate dehydrogenase, diaphorase and malate, 4 h): 2.86
Formation of formazan dyes, absorbance, Means 6 h ([4]; Malate dehydrogenase, diaphorase and malate, 6 h): 3.12
Formation of formazan dyes, absorbance, Means 8 h ([4]; Malate dehydrogenase, diaphorase and malate, 8 h): 3.26
Formation of formazan dyes, absorbance, Means 10 h ([4]; Malate dehydrogenase, diaphorase and malate, 10 h): 3.30
Formation of formazan dyes, absorbance, Means 12 h ([4]; Malate dehydrogenase, diaphorase and malate, 12 h): 3.28
conversion to reduced formazan dyes ([4]; malate dehydrogenase, diaphorase and malate (TABLE 10), monosodium salt): converted to reduced formazan dyes in a time-dependent fashion; also recorded: able to catalyze the reduction
Formation of formazan dyes, absorbance, Means 0 h (oral lavage [5]; oral lavage and diaphorase, not malate, 0 h): 0.59
Formation of formazan dyes, absorbance, Means 1 h (oral lavage [5]; oral lavage and diaphorase, not malate, 1 h): 0.83
Formation of formazan dyes, absorbance, Means 2 h (oral lavage [5]; oral lavage and diaphorase, not malate, 2 h): 0.87
Formation of formazan dyes, absorbance, Means 3 h (oral lavage [5]; oral lavage and diaphorase, not malate, 3 h): 0.84
Formation of formazan dyes, absorbance, Means 4 h (oral lavage [5]; oral lavage and diaphorase, not malate, 4 h): 0.82
Formation of formazan dyes, absorbance, Means 6 h (oral lavage [5]; oral lavage and diaphorase, not malate, 6 h): 0.88
Formation of formazan dyes, absorbance, Means 8 h (oral lavage [5]; oral lavage and diaphorase, not malate, 8 h): 1.00
Formation of formazan dyes, absorbance, Means 10 h (oral lavage [5]; oral lavage and diaphorase, not malate, 10 h): 1.00
Formation of formazan dyes, absorbance, Means 12 h (oral lavage [5]; oral lavage and diaphorase, not malate, 12 h): 1.01
reduction to formazan dyes by pooled oral lavage (oral lavage [5]; pooled oral lavage of high bleeder group, diaphorase, no added malate (TABLE 11)): partially reduced to formazan dyes
Formation of formazan dyes, absorbance, Means 0 h (oral lavage [6]; 0 h): 0.51
Formation of formazan dyes, absorbance, Means 1 h (oral lavage [6]; 1 h): 0.70
Formation of formazan dyes, absorbance, Means 2 h (oral lavage [6]; 2 h): 0.80
Formation of formazan dyes, absorbance, Means 3 h (oral lavage [6]; 3 h): 0.84
Formation of formazan dyes, absorbance, Means 4 h (oral lavage [6]; 4 h): 0.85
Formation of formazan dyes, absorbance, Means 6 h (oral lavage [6]; 6 h): 0.91
Formation of formazan dyes, absorbance, Means 8 h (oral lavage [6]; 8 h): 1.05
Formation of formazan dyes, absorbance, Means 10 h (oral lavage [6]; 10 h): 1.09
Formation of formazan dyes, absorbance, Means 12 h (oral lavage [6]; 12 h): 1.33
Absorbance, formation of formazan dyes (Means) (diaphorase [7]; 0 h): 0.22
Absorbance, formation of formazan dyes (Means) (diaphorase [7]; 1 h): 0.38
Absorbance, formation of formazan dyes (Means) (diaphorase [7]; 2 h): 0.46
Absorbance, formation of formazan dyes (Means) (diaphorase [7]; 3 h): 0.48
Absorbance, formation of formazan dyes (Means) (diaphorase [7]; 4 h): 0.43
Absorbance, formation of formazan dyes (Means) (diaphorase [7]; 6 h): 0.46
Absorbance, formation of formazan dyes (Means) (diaphorase [7]; 8 h): 0.44
Absorbance, formation of formazan dyes (Means) (diaphorase [7]; 10 h): 0.44
Absorbance, formation of formazan dyes (Means) (diaphorase [7]; 12 h): 0.47
Absorbance, formation of formazan dyes (Means) (diaphorase [8]; 0 h): 0.10
Absorbance, formation of formazan dyes (Means) (diaphorase [8]; 1 h): 0.14
Absorbance, formation of formazan dyes (Means) (diaphorase [8]; 2 h): 0.16
Absorbance, formation of formazan dyes (Means) (diaphorase [8]; 3 h): 0.19
Absorbance, formation of formazan dyes (Means) (diaphorase [8]; 4 h): 0.21
Absorbance, formation of formazan dyes (Means) (diaphorase [8]; 6 h): 0.26
Absorbance, formation of formazan dyes (Means) (diaphorase [8]; 8 h): 0.31
Absorbance, formation of formazan dyes (Means) (diaphorase [8]; 10 h): 0.35
Absorbance, formation of formazan dyes (Means) (diaphorase [8]; 12 h): 0.38
formation of formazan dyes / precipitates with 1-methoxy PMS and NADH [9]: converted to formazan dyes quickly
Absorbance, formation of formazan dyes (Means) ([9]; monosodium salt): 3.65 and 3.66 and 3.67
Absorbance, formation of formazan dyes (Means) [10]: 3.37 and 3.42 and 3.41
Absorbance, formation of formazan dyes (Means) (oral lavage [11]): 1.03 and 1.38 and 1.68 and 1.86
Absorbance, formation of formazan dyes (Means) [12]: 0.44 and 0.55 and 0.49 and 0.62
Means absorbance 0 h [13]: 0.19
Means absorbance 1 h [13]: 0.20
Means absorbance 2 h [13]: 0.23
Means absorbance 3 h [13]: 0.26
concentration of tetrazolium salt at which absorbance reached peaks (diaphorase [14]): 2 mM
reduction by malate dehydrogenase alone (Malate dehydrogenase): did not catalyze the reduction
Absorbance, formation of formazan dyes (Means) (Malate dehydrogenase; monosodium salt): 0.35 and 0.47

O=[N+]([O-])c1ccc(-n2nc(-c3ccccc3)n[n+]2-c2ccc(/N=N/c3ccc(S(=O)(=O)O)cc3)cc2S(=O)(=O)[O-])cc1 [WST-9, 2-(4-Nitrophenyl)-5-phenyl-3-[4-(4-sulfophenylazo)-2-sulfophenyl]-2H-tetrazolium, monosodium salt]
solubility of formazan products [15]: form precipitates
